Laboratory results from US9145425B2, “Cephem compound having catechol group” (SHIONOGI & CO., LTD., priority 2010, dated 2015).
In brackets after ≈: the same amount, converted by molar mass.

Tests used:
Format in all cases: cell-based
[1] = test system: Stenotrophomonas maltophilia SR21970; assay: Minimum Inhibitory Concentration (MIC), agar plate incubation, CLSI method; settings: Stenotrophomonas maltophilia SR21970, L-1, MBL producer strain (carbapenem resistant strain), 10000 cfu/spot, Mueller-Hinton agar medium; for MIC: read-out: Minimum Inhibitory Concentration (MIC)
Description: (§1) The antimicrobial activity in vitro of the present compound (I) was determined.
Measurement of Minimum Inhibitory Concentration (MIC, μg/ml) was conducted according to the CLSI (Clinical and Laboratory Standards Institute) and the amount of bacteria for inoculation was 10000 cfu/spot, and Mueller-Hinton agar medium was used as the test medium, and conducted using agar plate incubation.
(§2) In the tables, the unit of the values of inhibitory activity is μg/ml.

[2] = test system: Klebsiella pneumoniae ATCC 700603; assay: Minimum Inhibitory Concentration (MIC), agar plate incubation, Japan Society for Chemotherapy standard method; settings: Klebsiella pneumoniae ATCC 700603, SHV-18, ESBL producer strain, 1000 cfu/spot, sensitive disc medium; for MIC: ATCC700603, read-out: Minimum Inhibitory Concentration (MIC)
Description: as §1
(§3) Measurement of Minimum Inhibitory Concentration (MIC, μg/ml) was conducted according to the standard method of the Japan Society for Chemotherapy and the amount of bacteria for inoculation was 1000 cfu/spot, and sensitive disc medium was used as the test medium, and conducted using agar plate incubation.
as §2

[3] = test system: Acinetobacter baumannii SR24396; assay: as above; settings: Acinetobacter baumannii SR24396, no enzyme, 1000 cfu/spot, sensitive disc medium; for MIC: read-out: Minimum Inhibitory Concentration (MIC)
Description: as §1, §3, §2

[4] = test system: Pseudomonas aeruginosa SR24; assay: as above; settings: Pseudomonas aeruginosa SR24, no enzyme, ceftazidime sensitive strain, 1000 cfu/spot, sensitive disc medium; for MIC: read-out: Minimum Inhibitory Concentration (MIC)
Description: as §1, §3, §2

[5] = test system: Pseudomonas aeruginosa SR27060; assay: as above; settings: Pseudomonas aeruginosa SR27060, IMP-1, MBL producer strain (carbapenem resistant strain), 1000 cfu/spot, sensitive disc medium; for MIC: read-out: Minimum Inhibitory Concentration (MIC)
Description: as §1, §3, §2

Minimum Inhibitory Concentration (MIC) [1] | Minimum Inhibitory Concentration (MIC) [2] | Minimum Inhibitory Concentration (MIC) [3] | Minimum Inhibitory Concentration (MIC) [4] | Minimum Inhibitory Concentration (MIC) [5] | MIC [1] | MIC [2] | MIC [3] | MIC [4] | MIC [5] | SMILES
1 µg/mL | 0.25 µg/mL | 0.25 µg/mL | 0.063 µg/mL | 1 µg/mL |  |  |  |  |  | CC(C)(O/N=C(\C(=O)N[C@@H]1C(=O)N2C(C(=O)[O-])=C(C[N+]3(C)CCC4(CCN(C(=O)c5ccc(O)c(O)c5Cl)CC4)CC3)CS[C@H]12)c1csc(N)n1)C(=O)[O-].[Na+] [Compound I-42]
 |  |  |  |  | 1 µg/mL (≈ 1.23 µM) | 0.5 µg/mL (≈ 0.615 µM) | 0.125 µg/mL (≈ 0.154 µM) | 0.125 µg/mL (≈ 0.154 µM) | 2 µg/mL (≈ 2.46 µM) | Nc1nc(/C(=N/O[C@H](C(=O)[O-])c2ccccc2)C(=O)N[C@@H]2C(=O)N3C(C(=O)O)=C(C[N+]45CCC[C@H]4CN(C(=O)c4ccc(O)c(O)c4Cl)CC5)CS[C@H]23)ns1 (stereo partly drawn) [Compound I-52]
0.5 µg/mL | 0.25 µg/mL | 0.125 µg/mL | 0.063 µg/mL | 0.25 µg/mL |  |  |  |  |  | Nc1nc(/C(=N/O[C@@H](CC(=O)[O-])C(=O)[O-])C(=O)N[C@@H]2C(=O)N3C(C(=O)[O-])=C(C[N+]4(CCNC(=O)c5ccc(O)c(O)c5Cl)CCCC4)CS[C@H]23)cs1.[Na+].[Na+] [Compound I-59]
 |  |  |  |  | 0.5 µg/mL (≈ 0.666 µM) | 1 µg/mL (≈ 1.33 µM) | 0.25 µg/mL (≈ 0.333 µM) | 0.063 µg/mL (≈ 0.084 µM) | 0.5 µg/mL (≈ 0.666 µM) | C[C@@H](O/N=C(\C(=O)N[C@@H]1C(=O)N2C(C(=O)O)=C(C[N+]34CCC[C@H]3CN(C(=O)c3ccc(O)c(O)c3Cl)CC4)CS[C@H]12)c1csc(N)n1)C(=O)[O-] (stereo partly drawn) [Compound I-63]
 |  |  |  |  | 2 µg/mL (≈ 2.63 µM) | 0.25 µg/mL (≈ 0.328 µM) | 0.063 µg/mL (≈ 0.0828 µM) | 0.125 µg/mL (≈ 0.164 µM) | 0.5 µg/mL (≈ 0.657 µM) | N#CC[C@H](O/N=C(\C(=O)N[C@@H]1C(=O)N2C(C(=O)O)=C(C[N@@+]34CC[C@@H](C3)N(C(=O)c3ccc(O)c(O)c3Cl)CC4)CS[C@H]12)c1csc(N)n1)C(=O)[O-] [II-1]
0.5 µg/mL | 0.5 µg/mL | 0.125 µg/mL | 0.25 µg/mL | 0.5 µg/mL |  |  |  |  |  | C[N+]1(CC2=C(C(=O)[O-])N3C(=O)C(NC(=O)C(=NOC(CC(=O)[O-])C(=O)[O-])c4csc(N)n4)C3SC2)C2CCC1CN(C(=O)c1ccc(O)c(O)c1Cl)C2.[Na+].[Na+] (stereo not drawn) [II-7]
0.5 µg/mL | 0.25 µg/mL | 0.125 µg/mL | 0.125 µg/mL | 0.5 µg/mL |  |  |  |  |  | Nc1nc(C(=NOC(CC(=O)[O-])C(=O)[O-])C(=O)NC2C(=O)N3C(C(=O)[O-])=C(C[N+]45CCCC4CN(C(=O)c4cc(O)c(O)c(F)c4)CC5)CSC23)cs1.[Na+].[Na+] (stereo not drawn) [II-16]
 |  |  |  |  | 1 µg/mL (≈ 1.36 µM) | 0.5 µg/mL (≈ 0.679 µM) | 0.063 µg/mL (≈ 0.0856 µM) | 0.125 µg/mL (≈ 0.17 µM) | 1 µg/mL (≈ 1.36 µM) | C[C@@H](O/N=C(\C(=O)N[C@@H]1C(=O)N2C(C(=O)O)=C(C[N@@+]34CC[C@@H](C3)N(C(=O)c3ccc(O)c(O)c3Cl)CC4)CS[C@H]12)c1csc(N)n1)C(=O)[O-] [II-25]
0.5 µg/mL | 0.25 µg/mL | 0.125 µg/mL | 0.125 µg/mL | 1 µg/mL |  |  |  |  |  | Nc1nc(C(=NOC(CC(=O)[O-])C(=O)[O-])C(=O)NC2C(=O)N3C(C(=O)[O-])=C(C[N+]45CCCC4CN(C(=O)c4ccc(O)c(O)c4F)CC5)CSC23)cs1.[Na+].[Na+] (stereo not drawn) [II-28]
 |  |  |  |  | 0.5 µg/mL (≈ 0.68 µM) | 0.125 µg/mL (≈ 0.17 µM) | 0.25 µg/mL (≈ 0.34 µM) | 0.125 µg/mL (≈ 0.17 µM) | 0.5 µg/mL (≈ 0.68 µM) | CC(C)(O/N=C(\C(=O)N[C@@H]1C(=O)N2C(C(=O)O)=C(C[N+]3(CCNC(=O)c4ccc(O)c(O)c4F)CCCC3)CS[C@H]12)c1csc(N)n1)C(=O)[O-] [II-29]

The next lines start with the compound.

SMILES | Minimum Inhibitory Concentration (MIC) [1] | Minimum Inhibitory Concentration (MIC) [2] | Minimum Inhibitory Concentration (MIC) [3] | Minimum Inhibitory Concentration (MIC) [4] | Minimum Inhibitory Concentration (MIC) [5] | MIC [1] | MIC [2] | MIC [3] | MIC [4] | MIC [5]
Nc1nc(/C(=N/O[C@H](C(=O)[O-])c2ccccc2)C(=O)N[C@@H]2C(=O)N3C(C(=O)[O-])=C(C[N+]4(CCNC(=O)c5ccc(O)c(O)c5Cl)CCCC4)CS[C@H]23)ns1.[Na+] [Compound I-51] | 1 µg/mL | 0.25 µg/mL | 0.125 µg/mL | 0.063 µg/mL | 0.5 µg/mL |  |  |  |  | 
CC(C)(O/N=C(\C(=O)N[C@@H]1C(=O)N2C(C(=O)[O-])=C(C[N+]3(C)[C@@H]4CC[C@H]3C[C@@H](NC(=O)c3ccc(O)c(O)c3Cl)C4)CS[C@H]12)c1csc(N)n1)C(=O)O (stereo partly drawn) [II-2] |  |  |  |  |  | 2 µg/mL (≈ 2.57 µM) | 0.5 µg/mL (≈ 0.642 µM) | 0.25 µg/mL (≈ 0.321 µM) | 0.125 µg/mL (≈ 0.161 µM) | 1 µg/mL (≈ 1.28 µM)
C[N+]1(CC2=C(C(=O)[O-])N3C(=O)[C@@H](NC(=O)/C(=N\O[C@@H](CC(=O)O)C(=O)O)c4csc(N)n4)[C@H]3SC2)[C@@H]2CC[C@H]1C[C@@H](NC(=O)c1ccc(O)c(O)c1Cl)C2 (stereo partly drawn) [II-3] |  |  |  |  |  | 0.5 µg/mL (≈ 0.619 µM) | 0.5 µg/mL (≈ 0.619 µM) | 0.125 µg/mL (≈ 0.155 µM) | 0.125 µg/mL (≈ 0.155 µM) | 0.5 µg/mL (≈ 0.619 µM)
C[N+]1(CC2=C(C(=O)[O-])N3C(=O)[C@@H](NC(=O)/C(=N\O[C@@H](CC(=O)[O-])C(=O)[O-])c4nc(N)sc4Cl)[C@H]3SC2)[C@@H]2CC[C@H]1C[C@@H](NC(=O)c1ccc(O)c(O)c1Cl)C2.[Na+].[Na+] (stereo partly drawn) [II-5] | 4 µg/mL | 0.5 µg/mL | 0.125 µg/mL | 0.125 µg/mL | 0.25 µg/mL |  |  |  |  | 
C[N+]1(CC2=C(C(=O)[O-])N3C(=O)[C@@H](NC(=O)/C(=N\O[C@@H](CC(=O)O)C(=O)O)c4csc(N)n4)[C@H]3SC2)[C@@H]2CC[C@H]1C[C@H](NC(=O)c1ccc(O)c(O)c1Cl)C2 (stereo partly drawn) [II-9] |  |  |  |  |  | 0.25 µg/mL (≈ 0.309 µM) | 1 µg/mL (≈ 1.24 µM) | 0.063 µg/mL (≈ 0.0779 µM) | 0.25 µg/mL (≈ 0.309 µM) | 0.5 µg/mL (≈ 0.619 µM)
CC(C)(O/N=C(\C(=O)N[C@@H]1C(=O)N2C(C(=O)[O-])=C(C[N+]3(CCNC(=O)c4cc(O)c(O)c(F)c4)CCCC3)CS[C@H]12)c1csc(N)n1)C(=O)[O-].[Na+] [II-15] | 0.5 µg/mL | 0.125 µg/mL | 0.125 µg/mL | 0.063 µg/mL | 0.25 µg/mL |  |  |  |  | 
CC(C)(O/N=C(\C(=O)N[C@@H]1C(=O)N2C(C(=O)O)=C(C[N+]3(C)[C@@H]4CC[C@H]3C[C@@H](NC(=O)c3ccc(O)c(O)c3F)C4)CS[C@H]12)c1csc(N)n1)C(=O)[O-] (stereo partly drawn) [II-36] |  |  |  |  |  | 1 µg/mL (≈ 1.31 µM) | 0.5 µg/mL (≈ 0.656 µM) | 0.25 µg/mL (≈ 0.328 µM) | 0.25 µg/mL (≈ 0.328 µM) | 0.5 µg/mL (≈ 0.656 µM)
C[N+]1(CC2=C(C(=O)[O-])N3C(=O)[C@@H](NC(=O)/C(=N\O[C@@H](CC(=O)[O-])C(=O)[O-])c4csc(N)n4)[C@H]3SC2)[C@@H]2CC[C@H]1C[C@@H](NC(=O)c1ccc(O)c(O)c1F)C2.[Na+].[Na+] (stereo partly drawn) [II-37] | 0.5 µg/mL | 0.5 µg/mL | 0.25 µg/mL | 0.25 µg/mL | 0.25 µg/mL |  |  |  |  | 
CC(C)(O/N=C(\C(=O)N[C@@H]1C(=O)N2C(C(=O)O)=C(C[N+]3(C)[C@@H]4CC[C@H]3C[C@@H](NC(=O)c3cc(O)c(O)c(F)c3)C4)CS[C@H]12)c1csc(N)n1)C(=O)[O-] (stereo partly drawn) [II-47] |  |  |  |  |  | 0.5 µg/mL (≈ 0.656 µM) | 0.25 µg/mL (≈ 0.328 µM) | 0.25 µg/mL (≈ 0.328 µM) | 0.063 µg/mL (≈ 0.0827 µM) | 0.25 µg/mL (≈ 0.328 µM)
C[N+]1(CC2=C(C(=O)[O-])N3C(=O)[C@@H](NC(=O)/C(=N\O[C@@H](CC(=O)[O-])C(=O)[O-])c4csc(N)n4)[C@H]3SC2)[C@@H]2CC[C@H]1C[C@@H](NC(=O)c1cc(O)c(O)c(F)c1)C2.[Na+].[Na+] (stereo partly drawn) [II-48] | 0.5 µg/mL | 0.25 µg/mL | 0.125 µg/mL | 0.063 µg/mL | 0.25 µg/mL |  |  |  |  | 
CC(C)(O/N=C(\C(=O)N[C@@H]1C(=O)N2C(C(=O)O)=C(C[N+]3(CCNC(=O)c4cc(O)c(O)c(Cl)c4)CCCC3)CS[C@H]12)c1csc(N)n1)C(=O)[O-] [II-49] |  |  |  |  |  | 0.5 µg/mL (≈ 0.665 µM) | 0.125 µg/mL (≈ 0.166 µM) | 0.125 µg/mL (≈ 0.166 µM) | 0.125 µg/mL (≈ 0.166 µM) | 0.5 µg/mL (≈ 0.665 µM)
